This is an account of results in patent publication US6506766B1 (Abbott Laboratories, priority 1998, dated 2003).

Experiment [1] deals with T1, human glucocorticoid receptor-α [GRX] isoform (Homo sapiens, UniProt P04150).
T1 construct: host or cells: insect SF21 cells (baculovirus)
T1 sequence (P04150 1-777): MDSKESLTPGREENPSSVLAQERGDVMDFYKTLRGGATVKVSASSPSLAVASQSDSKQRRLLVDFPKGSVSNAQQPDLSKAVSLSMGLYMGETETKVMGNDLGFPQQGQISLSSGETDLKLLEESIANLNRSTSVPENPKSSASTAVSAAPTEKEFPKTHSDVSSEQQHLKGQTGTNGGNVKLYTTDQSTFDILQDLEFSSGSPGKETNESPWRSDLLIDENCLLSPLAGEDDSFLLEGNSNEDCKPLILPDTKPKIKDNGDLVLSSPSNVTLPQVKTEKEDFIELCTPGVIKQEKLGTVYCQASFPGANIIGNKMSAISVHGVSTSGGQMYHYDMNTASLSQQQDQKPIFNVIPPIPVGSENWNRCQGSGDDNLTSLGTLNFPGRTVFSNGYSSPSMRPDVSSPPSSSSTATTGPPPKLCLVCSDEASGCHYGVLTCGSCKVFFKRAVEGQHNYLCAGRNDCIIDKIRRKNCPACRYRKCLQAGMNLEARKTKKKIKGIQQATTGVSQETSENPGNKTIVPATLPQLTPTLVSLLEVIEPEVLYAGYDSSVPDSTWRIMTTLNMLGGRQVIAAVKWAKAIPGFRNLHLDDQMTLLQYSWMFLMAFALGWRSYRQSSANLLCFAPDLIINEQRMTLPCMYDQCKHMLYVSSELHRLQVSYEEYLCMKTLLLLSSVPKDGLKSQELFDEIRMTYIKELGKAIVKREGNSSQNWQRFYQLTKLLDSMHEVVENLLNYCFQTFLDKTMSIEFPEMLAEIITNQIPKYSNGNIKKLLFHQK
As to the kind of experiment: Radioligand binding with human glucocorticoid receptor cytosol ([3H]-dexamethasone competition).

For experiment [2], the target named is T2, human progesterone receptor-A [PRA] isoform (Homo sapiens, UniProt P06401).
T2 construct: host or cells: insect SF21 cells (baculovirus)
T2 sequence (P06401 1-769 isoform P06401-2): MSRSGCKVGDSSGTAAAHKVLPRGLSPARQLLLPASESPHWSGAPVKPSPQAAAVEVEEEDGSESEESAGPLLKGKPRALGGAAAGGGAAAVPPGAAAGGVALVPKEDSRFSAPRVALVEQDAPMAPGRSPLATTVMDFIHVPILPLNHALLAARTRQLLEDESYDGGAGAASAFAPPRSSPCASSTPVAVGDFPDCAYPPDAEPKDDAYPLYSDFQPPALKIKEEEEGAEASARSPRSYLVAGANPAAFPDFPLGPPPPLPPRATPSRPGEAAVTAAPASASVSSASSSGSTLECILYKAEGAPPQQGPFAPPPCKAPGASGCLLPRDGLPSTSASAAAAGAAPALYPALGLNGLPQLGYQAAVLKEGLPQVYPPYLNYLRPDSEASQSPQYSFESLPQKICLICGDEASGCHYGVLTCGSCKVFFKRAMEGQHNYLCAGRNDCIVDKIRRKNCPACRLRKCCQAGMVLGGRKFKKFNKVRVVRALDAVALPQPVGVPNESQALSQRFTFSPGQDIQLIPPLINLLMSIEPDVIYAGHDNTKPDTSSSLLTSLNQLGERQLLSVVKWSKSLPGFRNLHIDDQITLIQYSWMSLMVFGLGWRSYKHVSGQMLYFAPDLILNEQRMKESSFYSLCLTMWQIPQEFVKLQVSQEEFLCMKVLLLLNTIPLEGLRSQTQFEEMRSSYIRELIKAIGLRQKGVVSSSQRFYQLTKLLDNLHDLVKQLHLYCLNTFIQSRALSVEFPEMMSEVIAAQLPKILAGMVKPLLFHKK
Briefly: Radioligand binding with human progesterone receptor cytosol ([3H]-progesterone competition).
Procedure: Both receptor cDNAs were cloned into baculovirus expression vectors and expressed in insect SF21 cells.
Stock solutions (32 mM) of compounds were prepared in dimethylsulfoxide (DMSO), and 50× solutions of test compounds were prepared from the 32 mM solution with a 50:50 mixture of DMSO/ethanol. The 50× solution was then diluted with binding buffer that contained 10 mM Tri-HCl, 1.5 mM EDTA, 10% glycerol, 1 mM DTT, 20 mM sodium molybdate, pH 7.5 @4° C. 1% DMSO/ethanol was present in the binding assay.
For PR binding assays, [^3H]Prog (˜36,000 dpm (˜0.8 nM)), PRA cytosol (˜40 μg protein), test compounds and binding buffer were mixed in a total volume of 200 μL and incubated at 4° C at overnight in a plate shaker. Specific binding was defined as the difference between binding of [^3H]Prog in the absence and in the presence of 3 μM unlabelled Prog.
After an overnight incubation, 50 μL of hydroxyapatite (25% weight/volume) slurry were added to each well and plates were incubated for 10 min at 0° C. in a plate shaker. Plates were suctioned with a Millipore vacuum manifold and each well was rinsed with 300 μL of ice-cold binding buffer. A 250 μL aliquot of Packard Microscint-20 was added to each well and the wells were shaken at room temperature for 20 minutes. The amount of radioactivity was determined with a Packard TopCount plate reader.
The Ki of test compounds was determined using the Cheng-Prusoff equation Ki=IC50/(1+[L*]/[KL]) where L* is the concentration of radioligand and KL is the dissociation constant of the radioligand determined from saturation analysis.

Where [3] appears, read: GRX cytosol expressed in insect SF21 cells, [3H]-Dex ~0.9 nM, 4° C. overnight, Ki by Cheng-Prusoff, KL ~[…], read-out: Ki (nM) GR.
[4] abbreviates: PRA cytosol expressed in insect SF21 cells, [3H]Prog ~0.8 nM, 4° C. overnight, Ki by Cheng-Prusoff, KL ~4.5 nM, read-out: Ki (nM) PR.

Where two headings read alike, the source gives them in different places.

`COc1c(O)ccc2c1-c1ccc3c(c1/C(=C/c1cccc(F)c1F)O2)C(C)=CC(C)(C)N3` [Example 373, (Z)-9-Hydroxy-10-methoxy-5-([2,3-difluorophenyl]methylene)-2,2,4-trimethyl-1H-2,5-dihydro-[1]benzopyrano[3,4-f]quinoline]: the inhibition constant (Ki) in experiment [1] (setting [3]) came out at 3.1 nM; in experiment [2] (setting [4]) it was 279 nM.

As for `COc1c(O)ccc2c1-c1ccc3c(c1/C(=C/c1cccc(F)c1)O2)C(C)=CC(C)(C)N3` [Example 374, Z-5-(3-Fluorobenzylidenyl)-10-methoxy-9-hydroxy-2,2,4-trimethyl-2,5-dihydro-1H-[1]benzopyrano[3,4-f]quinoline], the Ki in experiment [1] (setting [3]) was 9 nM; in experiment [2] (setting [4]), 222 nM.

As to `CCC1Oc2ccc(O)c(OC)c2-c2ccc3c(c21)C(C)=CC(C)(C)N3` (stereo not shown) [Example 376, 9-Hydroxy-10-methoxy-5-ethyl-2,2,4-trimethyl-2,5-dihydro-1H-[1]benzopyrano[3,4-f]quinoline], the Ki in experiment [1] (setting [3]) is 0.78 nM; in experiment [2] (setting [4]), 156 nM.

In the case of `C=CCC1Oc2ccc(OC(=O)CCC(=O)N(CC)CC)c(OC)c2-c2ccc3c(c21)C(C)=CC(C)(C)N3` (stereo not shown) [Example 378, 2,5-Dihydro-9-(4-N,N-diethylamino-4-oxo-butanoyloxy)-10-methoxy-2,2,4-trimethyl-5-(2-propenyl)-1H-[1]benzopyrano[3,4-f]quinoline], the Ki in experiment [1] (setting [3]) worked out at 1.1 nM; in experiment [2] (setting [4]), 440 nM.

Consider `C=CCC1Oc2ccc(OC(=O)CCC(=O)N3CCCCC3)c(OC)c2-c2ccc3c(c21)C(C)=CC(C)(C)N3` (stereo not shown) [Example 379, 2,5-Dihydro-9-(4-N-piperidino-4-oxo-butanoyloxy)-10-methoxy-2,2,4-trimethyl-5-(2-propenyl)-1H-[1]benzopyrano[3,4-f]quinoline], for which the values for the Ki in experiment [1] (setting [3]) and in experiment [2] (setting [4]) were 1.4 nM and 175 nM, respectively.

Regarding `C=CCC1Oc2ccc(OC(=O)CCC(=O)N3CCOCC3)c(OC)c2-c2ccc3c(c21)C(C)=CC(C)(C)N3` (stereo not shown) [Example 380, 2,5-Dihydro-9-(4-N-morpholino-4-oxo-butanoyloxy)-10-methoxy-2,2,4-trimethyl-5-(2-propenyl)-1H-[1]benzopyrano[3,4-f]quinoline], the Ki worked out at 1.2 nM in experiment [1] (setting [3]) and 204 nM in experiment [2] (setting [4]).

Regarding `COc1c(OC(=O)CCC(=O)N(C)C)ccc2c1-c1ccc3c(c1C(c1cc(F)c(F)c(F)c1)O2)C(C)=CC(C)(C)N3` (stereo not shown) [Example 381, 2,5-Dihydro-9-(4-N,N-dimethylamino-4-oxo-butanoyloxy)-10-methoxy-2,2,4-trimethyl-5-(3,4,5-trifluorophenyl)-1H-[1]benzopyrano[3,4-f]quinoline], the Ki stood at 7.1 nM in experiment [1] (setting [3]) and 9820 nM in experiment [2] (setting [4]).

In the case of `CC1=CC(C)(C)Nc2ccc3c(c21)C(c1cccs1)Oc1ccc(O)c(Cl)c1-3` (stereo not shown) [Example 383, 2,5-Dihydro-9-hydroxy-10-chloro-2,2,4-trimethyl-5-(2-thienyl)-1H-[1]benzopyrano[3,4-f]quinoline], the Ki in experiment [1] (setting [3]) was 4.8 nM; in experiment [2] (setting [4]), 46 nM.

On to `COc1c(O)ccc2c1-c1ccc3c(c1C(C1CCCC1)O2)C(C)=CC(C)(C)N3` (stereo not shown) [Example 384, 2,5-Dihydro-9-hydroxy-10-methoxy-2,2,4-trimethyl-5-cyclopentyl-1H-[1]benzopyrano[3,4-f]quinoline], for which the Ki in experiment [1] (setting [3]) came out at 0.67 nM; in experiment [2] (setting [4]), 197 nM.

For the molecule `C=CCC1Oc2ccc(CO)c(OC)c2-c2ccc3c(c21)C(C)=CC(C)(C)N3` (stereo not shown) [Example 386, 2,5-Dihydro-9-hydroxymethyl-10-methoxy-2,2,4-trimethyl-5-allyl-1H-[1]benzopyrano[3,4-f]quinoline], the Ki was determined as 6.5 nM in experiment [1] (setting [3]) and 105 nM in experiment [2] (setting [4]).

With `C=CCCCC1Oc2ccc(O)c(OC)c2-c2ccc3c(c21)C(C)=CC(C)(C)N3` (stereo not shown) [Example 387], the Ki in experiment [1] (setting [3]) amounted to 0.65 nM; in experiment [2] (setting [4]) it was 169 nM.

Turning to `C=CCC1Oc2ccc(C(=O)OC)c(OC)c2-c2ccc3c(c21)C(C)=CC(C)(C)N3` (stereo not shown) [Example 388, 2,5-Dihydro-9-methylcarboxylate-10-methoxy-2,2,4-trimethyl-5-allyl-1H-[1]benzopyrano[3,4-f]quinoline], the Ki in experiment [1] (setting [3]) was determined as 2.8 nM; in experiment [2] (setting [4]), 199 nM.

On to `C=C=CC1Oc2ccc(O)c(OC)c2-c2ccc3c(c21)C(C)=CC(C)(C)N3` (stereo not shown) [Example 389, 2,5-Dihydro-9-hydroxy-10-methoxy-2,2,4-trimethyl-5-allenyl-1H-[1]benzopyrano[3,4-f]quinoline], for which the Ki in experiment [1] (setting [3]) turned out to be 0.58 nM; in experiment [2] (setting [4]), 27.5 nM.

With `COc1cccc2c1-c1ccc3c(c1[C@H]([C@H]1C=CCCC1)O2)C(C)=CC(C)(C)N3` [Example 392, (−)(5S,3′R)2,5-Dihydro-10-methoxy-2,2,4-trimethyl-5-(cyclohexen-3-yl)-1H-[1]benzopyrano[3,4-f]quinoline], the Ki stood at 1.2 nM in experiment [1] (Ki (nM) GR, GRX cytosol expressed in insect SF21 cells, [3H]-Dex ~0.9 nM, 4° C. overnight, Ki by Cheng-Prusoff, KL ~[…]) and 487 nM in experiment [2] (setting [4]).

For `CC/C=C\CC1Oc2ccc(O)c(OC)c2-c2ccc3c(c21)C(C)=CC(C)(C)N3` (stereo not shown) [Example 394], the Ki came out at 0.89 nM in experiment [1] (setting [3]) and 109 nM in experiment [2] (setting [4]).

Turning to `COc1c(O)ccc2c1-c1ccc3c(c1C(c1cccc(OC(C)=O)c1)O2)C(C)=CC(C)(C)N3` (stereo not shown) [Example 395, 2,5-Dihydro-9-hydroxy-10-methoxy-2,2,4-trimethyl-5-(3-acetoxyphenyl)-1H-[1]benzopyrano[3,4-f]quinoline], the results for the Ki in experiment [1] (setting [3]) and in experiment [2] (setting [4]) were 2.1 nM and 1210 nM, respectively.

For the molecule `CSCOc1cccc(C2Oc3cccc(OC(F)F)c3-c3ccc4c(c32)C(C)=CC(C)(C)N4)c1` (stereo not shown) [Example 396], the Ki turned out to be 6.3 nM in experiment [1] (setting [3]) and 2120 nM in experiment [2] (setting [4]).

On to `COc1c(O)ccc2c1-c1ccc3c(c1C(c1cccc(O)c1)O2)C(C)=CC(C)(C)N3` (stereo not shown) [Example 398, 2,5-Dihydro-9-hydroxy-10-methoxy-2,2,4-trimethyl-5-(3-hydroxyphenyl)-1H-[1]benzopyrano[3,4-f]quinoline], for which the Ki in experiment [1] (setting [3]) was 6.7 nM; in experiment [2] (setting [4]), 1080 nM.

As to `COc1c(O)ccc2c1-c1ccc3c(c1C(c1cccc(OCSC)c1)O2)C(C)=CC(C)(C)N3` (stereo not shown) [Example 400, 2,5-Dihydro-9-hydroxy-10-methoxy-2,2,4-trimethyl-5-(3-(methylthiomethoxy)phenyl)-1H-[1]benzopyrano[3,4-f]quinoline], the Ki in experiment [1] (setting [3]) is 3.5 nM; in experiment [2] (setting [4]), 5960 nM.

In the case of `CC1=CC(C)(C)Nc2ccc3c(c21)C(=Cc1ccccc1)Oc1ccc(O)c(Cl)c1-3` [Example 401, 9-Hydroxy-10-chloro-5-(phenylmethylene)-2,2,4-trlimethyl-1H-2,5-dihydro-[1]benzopyrano[3,4-f]quinoline], the Ki in experiment [1] (setting [3]) is 134 nM; in experiment [2] (setting [4]) it was 6080 nM.

`COc1c(O)ccc2c1-c1ccc3c(c1C(c1ccccc1OC(=O)N(C)C)O2)C(C)=CC(C)(C)N3` (stereo not shown) [Example 402]: the inhibition constant Ki is 3.3 nM in experiment [1] (Ki (nM) GR) and 10100 nM in experiment [2] (Ki (nM) PR).

For `COc1c(OC(=O)N(C)C)ccc2c1-c1ccc3c(c1C(c1ccccc1OC(=O)N(C)C)O2)C(C)=CC(C)(C)N3` (stereo not shown) [Example 403, 2,5-Dihydro-9-N,N-dimethylcarbamoyloxy-10-methoxy-2,2,4-trimethyl-5-([2-N,N-dimethylcarbamoyloxy]phenyl)-1H-[1]benzopyrano[3,4-f]quinoline], the Ki in experiment [1] (Ki (nM) GR) was 131 nM; in experiment [2] (Ki (nM) PR) it was not below 10000 nM.

Regarding `CCC1Oc2ccc(O)c(Cl)c2-c2ccc3c(c21)C(C)=CC(C)(C)N3` (stereo not shown) [Example 404, 2,5-Dihydro-9-hydroxy-10-chloro-2,2,4-trimethyl-5-ethyl-1H-[1]benzopyrano[3,4-f]quinoline], the inhibition constant Ki worked out at 1.3 nM in experiment [1] (setting [3]) and 49.7 nM in experiment [2] (setting [4]).
